Measurements: ChEMBL document CHEMBL3352519, “Discovery of a novel pyrazole series of group X secreted phospholipase A2 inhibitor (sPLA2X) via fragment based virtual screening” (Bioorg Med Chem Lett, 2014)

Columns and labels:
[1] = target: T1, Group 10 secretory phospholipase A2 (Homo sapiens, UniProt O15496); assay: Inhibition of human sPLA2X using 1,2-bis(heptanoylthio) glycerophosphocholine substrate incubated for 30 mins
T1 sequence (O15496 whole entry): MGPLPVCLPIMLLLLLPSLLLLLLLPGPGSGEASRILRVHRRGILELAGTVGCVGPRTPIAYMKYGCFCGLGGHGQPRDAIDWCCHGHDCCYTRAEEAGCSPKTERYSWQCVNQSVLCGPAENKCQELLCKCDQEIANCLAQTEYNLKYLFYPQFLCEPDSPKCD

[2] = target: T2, Group 10 secretory phospholipase A2 (Homo sapiens) (UniProt O15496); assay: (§1) Binding affinity to sPLA2X (unknown origin) by NMR spectroscopy based displacement assay; settings: concentration not given here
T2 sequence (whole entry): T1 sequence (O15496 whole entry)

[3] = target: T1, Group 10 secretory phospholipase A2; assay: as §1
[4] = target: T1, Group 10 secretory phospholipase A2; assay: Binding affinity to sPLA2X (unknown origin)

Structure (SMILES)	IC50 [1] [nM]	further results
NC(=O)c1cc(-c2cc(Cl)sc2Cl)[nH]n1	398	–
O=C(O)c1csc(-c2ccc3c(c2)CCO3)n1	–	inhibition [2]: 80%; IC50 [3]: 70000 nM
Cc1sc2ccccc2c1-c1cc(C(N)=O)n[nH]1	174	–
Cc1sc2ccccc2c1-c1cc(C(N)=O)nn1C	851	–
Cc1cc(-c2cc(C(N)=O)n[nH]2)c(C)s1	316	inhibition [2]: 57%; IC50 [3]: 20000 nM
NC(=O)c1cc(-c2ccccc2Cl)[nH]n1	9330	–
COc1ccc2c(C(O)C(N)=O)c(C)n(Cc3ccccc3)c2c1 (stereo not given)	–	IC50 [4]: 250000 nM
Cc1sc(C(C)C)cc1-c1cc(C(N)=O)n[nH]1	< 51.3	–
Cc1sc(-c2ccccc2)cc1-c1cc(C(N)=O)n[nH]1	347	–
Cc1ccccc1-c1cc(C(N)=O)n[nH]1	2750	–
Oc1nc(-c2ccccc2)c(-c2ccccc2)[nH]1	–	inhibition [2]: 88%; IC50 [3]: 45000 nM
Cc1sc(-c2ccccc2)cc1-c1cc(C(N)=O)nn1C	1200	–
Cc1cc(-c2cc(C(N)=O)nn2C)c(C)s1	851	–
Cc1sccc1-c1cc(C(N)=O)n[nH]1	631	–
O=C(O)c1ccc(-n2ncc3ccccc3c2=O)cc1	–	inhibition [2]: 76%; IC50 [3]: 50000 nM
